Laboratory results: paper PMC8518794 (2021)

Tests used:
[1] = test system: pApU (poly rA–poly rU; polyAU) (RNA, polymer) A/U; assay: fluorimetric titration; settings: Na+ (sodium cacodylate); pH 7; compound 1×10^-7 M; negligible emission change
[2] = test system: pApU (poly rA–poly rU; polyAU) (RNA, polymer) A/U; assay: UV thermal denaturation; settings: Na+ (sodium cacodylate); pH 7; r[compound]/[polynucleotide] = 0.3; error ±0.5 °C; per base
[3] = test system: pApU (poly rA–poly rU; polyAU) (RNA, polymer) A/U; assay: fluorimetric titration, Scatchard / McGhee-von Hippel; settings: Na+ (sodium cacodylate); pH 7; sodium cacodylate buffer; r fixed at 0.25; compound 1×10^-7 M; per base

Compound	binding [1]	ΔTm [2] [°C]	log Ks [3]
Cc1cc(C)c(B(c2c(C)cc(C)cc2C)c2c(C)cc(-c3ccc(-c4ccc(-c5cc(C)c(B(c6c(C)cc(C)cc6C)c6c(C)cc([N+](C)(C)C)cc6C)c(C)c5)s4)s3)cc2C)c(C)c1	no	0	
Cc1cc(C)c(B(c2c(C)cc(C)cc2C)c2c(C)cc(-c3ccc(-c4ccc(-c5cc(C)c(B(c6c(C)cc([N+](C)(C)C)cc6C)c6c(C)cc([N+](C)(C)C)cc6C)c(C)c5)s4)s3)cc2C)c(C)c1		11.1	7.0
Cc1cc(C)c(B(c2c(C)cc(-c3ccc(-c4ccc(-c5cc(C)c(B(c6c(C)cc([N+](C)(C)C)cc6C)c6c(C)cc([N+](C)(C)C)cc6C)c(C)c5)s4)s3)cc2C)c2c(C)cc([N+](C)(C)C)cc2C)c(C)c1		5.5	7.5
Cc1cc(C)c(B(c2c(C)cc(-c3ccc(-c4ccc(-c5cc(C)c(B(c6c(C)cc(C)cc6C)c6c(C)cc([N+](C)(C)C)cc6C)c(C)c5)s4)s3)cc2C)c2c(C)cc([N+](C)(C)C)cc2C)c(C)c1		13.0	7.8
